Data from ChEMBL document CHEMBL4602694, “Suppression of Drug-Resistant Non-Small-Cell Lung Cancer with Inhibitors Targeting Minichromosomal Maintenance Protein” (J Med Chem, 2020).
Calls of active or inactive are those of the source. The calls are words filed in the database; no cut-off is given here.

Columns and labels:
NCI-H1975 [1] = assay: Antitumor activity against human NCI-H1975 cells xenografted in athymic nude BALB/c mouse assessed as tumor growth at 4 mg/kg, ip administered for 4 weeks (reference value: 1217 +/- 516.6 cu.mm); assay type: functional
NCI-H1975 [2] = assay: Antitumor activity against human NCI-H1975 cells xenografted in athymic nude BALB/c mouse assessed as tumor growth inhibition at 4 mg/kg, ip administered for 4 weeks relative to control; assay type: functional; conditions: 672 h, read-out: TGI
NCI-H1975 [3] = assay: Cell cycle arrest in human NCI-H1975 cells assessed as BrdU positive cells at 140 nM incubated for 48 hrs by BrdUrd incorporation assay (reference value: 34 +/- 5.6 %); assay type: functional
NCI-H1975 [4] = assay: Induction of apoptosis in human NCI-H1975 cells assessed as increase in cleaved PARP1 level at 140 nM incubated upto 72 hrs by immunoblotting analysis; assay type: functional, cell-based
NCI-H1975 [5] = assay: Induction of apoptosis in human NCI-H1975 cells assessed as increase in cleaved caspase 8 level at 140 nM incubated upto 72 hrs by immunoblotting analysis; assay type: functional, cell-based
[6] = molecular target: T1, DNA replication licensing factor MCM6 (Homo sapiens) (UniProt Q14566); assay: Induction of ubiquitination of MCM6 in human NCI-H1975 cells incubated for 24 hrs by immunoblot analysis; assay type: cell-based
T1 sequence (whole entry): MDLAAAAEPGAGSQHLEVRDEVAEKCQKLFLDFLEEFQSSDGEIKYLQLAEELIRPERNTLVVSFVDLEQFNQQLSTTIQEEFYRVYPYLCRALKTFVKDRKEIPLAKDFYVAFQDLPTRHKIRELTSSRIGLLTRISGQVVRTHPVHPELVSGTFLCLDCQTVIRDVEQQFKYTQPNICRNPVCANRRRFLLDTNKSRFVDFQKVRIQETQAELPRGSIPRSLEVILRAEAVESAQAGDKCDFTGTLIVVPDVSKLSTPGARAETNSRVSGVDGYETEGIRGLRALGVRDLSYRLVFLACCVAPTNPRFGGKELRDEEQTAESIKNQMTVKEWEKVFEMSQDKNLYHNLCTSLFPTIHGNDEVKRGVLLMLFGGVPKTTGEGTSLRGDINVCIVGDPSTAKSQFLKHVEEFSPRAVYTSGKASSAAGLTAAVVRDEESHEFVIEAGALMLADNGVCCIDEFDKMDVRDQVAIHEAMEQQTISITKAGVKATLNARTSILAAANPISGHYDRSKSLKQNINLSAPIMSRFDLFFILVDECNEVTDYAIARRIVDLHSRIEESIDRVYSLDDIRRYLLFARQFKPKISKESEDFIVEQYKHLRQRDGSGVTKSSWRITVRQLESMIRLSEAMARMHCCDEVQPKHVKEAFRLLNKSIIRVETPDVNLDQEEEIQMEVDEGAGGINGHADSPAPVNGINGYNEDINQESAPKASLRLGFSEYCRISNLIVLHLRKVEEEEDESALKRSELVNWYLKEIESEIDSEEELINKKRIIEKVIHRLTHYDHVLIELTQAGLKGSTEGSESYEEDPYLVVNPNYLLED

[7] = molecular target: T1, DNA replication licensing factor MCM6 (Homo sapiens); assay: Induction of ubiquitination of MCM6 in human H3255 cells incubated for 24 hrs by immunoblot analysis; assay type: cell-based; conditions: NCI-H3255
[8] = molecular target: T1, DNA replication licensing factor MCM6 (Homo sapiens); assay: Induction of ubiquitination of MCM6 in human PC9 cells incubated for 24 hrs by immunoblot analysis; assay type: cell-based; conditions: PC-9
[9] = molecular target: DNA replication licensing factor MCM2 (Homo sapiens) (UniProt P49736); assay: Induction of ubiquitination of MCM2 in human NCI-H1975 cells incubated for 24 hrs by immunoblot analysis (reference value: 1); assay type: cell-based
[10] = molecular target: DNA replication licensing factor MCM2 (Homo sapiens) (UniProt P49736); assay: Induction of ubiquitination of MCM2 in human NCI-H1975 cells incubated for 48 hrs by immunoblot analysis (reference value: 1); assay type: cell-based
[11] = molecular target: T2, DNA replication licensing factor MCM4 (Homo sapiens) (UniProt P33991); assay: Induction of ubiquitination of MCM4 in human NCI-H1975 cells incubated for 48 hrs by immunoblot analysis (reference value: 1); assay type: cell-based
T2 sequence (whole entry): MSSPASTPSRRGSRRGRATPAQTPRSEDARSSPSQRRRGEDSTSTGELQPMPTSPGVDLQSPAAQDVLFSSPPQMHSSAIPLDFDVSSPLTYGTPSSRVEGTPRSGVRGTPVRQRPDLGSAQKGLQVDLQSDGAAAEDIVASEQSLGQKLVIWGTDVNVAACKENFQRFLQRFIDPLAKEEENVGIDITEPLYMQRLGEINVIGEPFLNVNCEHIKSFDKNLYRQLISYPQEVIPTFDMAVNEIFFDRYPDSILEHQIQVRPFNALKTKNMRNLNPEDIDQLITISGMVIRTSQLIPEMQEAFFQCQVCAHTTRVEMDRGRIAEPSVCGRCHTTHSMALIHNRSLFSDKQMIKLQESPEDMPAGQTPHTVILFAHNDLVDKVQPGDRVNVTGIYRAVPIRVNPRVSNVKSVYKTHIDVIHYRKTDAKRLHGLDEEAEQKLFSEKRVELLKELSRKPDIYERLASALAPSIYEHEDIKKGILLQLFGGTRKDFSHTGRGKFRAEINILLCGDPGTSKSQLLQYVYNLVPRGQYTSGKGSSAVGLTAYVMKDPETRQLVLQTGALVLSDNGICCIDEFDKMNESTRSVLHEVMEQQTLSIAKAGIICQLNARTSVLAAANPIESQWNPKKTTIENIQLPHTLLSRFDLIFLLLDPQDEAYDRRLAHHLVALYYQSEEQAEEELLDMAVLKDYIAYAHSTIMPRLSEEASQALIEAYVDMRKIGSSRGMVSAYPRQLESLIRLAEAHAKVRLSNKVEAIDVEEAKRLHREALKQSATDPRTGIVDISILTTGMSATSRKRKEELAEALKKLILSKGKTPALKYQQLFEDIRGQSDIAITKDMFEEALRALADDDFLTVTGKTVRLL

[12] = molecular target: DNA replication licensing factor MCM2 (Homo sapiens) (UniProt P49736); assay: Induction of ubiquitination of MCM2 in human NCI-H1975 cells at 140 nM in presence of MG132 incubated for 48 hrs followed by MG132 addition and measured after 12 hrs by immunoblot analysis; assay type: cell-based
[13] = molecular target: T1, DNA replication licensing factor MCM6 (Homo sapiens); assay: Induction of ubiquitination of MCM6 in human NCI-H1975 cells at 140 nM in presence of MG132 incubated for 48 hrs followed by MG132 addition and measured after 12 hrs by immunoblot analysis; assay type: cell-based
[14] = molecular target: DNA replication licensing factor MCM7 (Homo sapiens) (UniProt P33993); assay: Induction of ubiquitination of MCM7 in human NCI-H1975 cells at 140 nM in presence of MG132 incubated for 48 hrs followed by MG132 addition and measured after 12 hrs by immunoblot analysis; assay type: cell-based
[15] = system: DNA replication licensing factor MCM2 (Homo sapiens), P49736 [Q341A]; assay: Induction of ubiquitination of FLAG-tagged MCM2 Q341A mutant (unknown origin) expressed in human NCI-H1975 cells incubated for 24 hrs by magnetic beads technique based immunoblot analysis; assay type: cell-based
[16] = system: DNA replication licensing factor MCM2 (Homo sapiens), P49736 [Q341A]; assay: Induction of ubiquitination of FLAG-tagged MCM2 Q341A mutant (unknown origin) expressed in human 293T cells incubated for 4 hrs by magnetic beads technique based immunoblot analysis; assay type: cell-based; conditions: HEK-293T

Chain of DNA replication licensing factor MCM2 (Homo sapiens) (P49736 whole entry): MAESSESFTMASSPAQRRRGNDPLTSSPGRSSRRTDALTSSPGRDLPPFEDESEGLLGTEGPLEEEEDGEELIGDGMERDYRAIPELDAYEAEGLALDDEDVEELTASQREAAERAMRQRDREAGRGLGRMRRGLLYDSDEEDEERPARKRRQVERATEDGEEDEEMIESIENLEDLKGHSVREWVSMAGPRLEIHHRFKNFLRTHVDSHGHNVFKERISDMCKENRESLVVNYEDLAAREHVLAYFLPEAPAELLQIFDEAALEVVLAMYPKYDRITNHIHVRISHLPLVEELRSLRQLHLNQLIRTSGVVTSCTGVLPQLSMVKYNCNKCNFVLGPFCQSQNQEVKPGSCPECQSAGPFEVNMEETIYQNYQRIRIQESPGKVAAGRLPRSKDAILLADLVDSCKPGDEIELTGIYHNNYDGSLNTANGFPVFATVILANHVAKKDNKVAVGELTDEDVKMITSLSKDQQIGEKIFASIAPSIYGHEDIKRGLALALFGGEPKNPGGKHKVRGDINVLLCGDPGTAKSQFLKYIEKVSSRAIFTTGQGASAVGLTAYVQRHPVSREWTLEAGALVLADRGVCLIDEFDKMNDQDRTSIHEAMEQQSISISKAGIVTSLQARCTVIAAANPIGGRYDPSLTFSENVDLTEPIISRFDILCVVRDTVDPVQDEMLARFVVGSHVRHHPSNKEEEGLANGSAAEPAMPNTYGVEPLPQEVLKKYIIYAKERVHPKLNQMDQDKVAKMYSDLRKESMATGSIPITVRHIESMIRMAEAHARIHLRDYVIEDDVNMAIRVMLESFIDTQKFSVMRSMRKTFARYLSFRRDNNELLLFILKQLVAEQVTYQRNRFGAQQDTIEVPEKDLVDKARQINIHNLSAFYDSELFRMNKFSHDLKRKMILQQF
Chain of DNA replication licensing factor MCM2 (Homo sapiens), P49736 [Q341A] (P49736 whole entry Q341A): as the sequence (P49736 whole entry) above, with Q341A counted along it
Chain of DNA replication licensing factor MCM7 (Homo sapiens) (P33993 whole entry): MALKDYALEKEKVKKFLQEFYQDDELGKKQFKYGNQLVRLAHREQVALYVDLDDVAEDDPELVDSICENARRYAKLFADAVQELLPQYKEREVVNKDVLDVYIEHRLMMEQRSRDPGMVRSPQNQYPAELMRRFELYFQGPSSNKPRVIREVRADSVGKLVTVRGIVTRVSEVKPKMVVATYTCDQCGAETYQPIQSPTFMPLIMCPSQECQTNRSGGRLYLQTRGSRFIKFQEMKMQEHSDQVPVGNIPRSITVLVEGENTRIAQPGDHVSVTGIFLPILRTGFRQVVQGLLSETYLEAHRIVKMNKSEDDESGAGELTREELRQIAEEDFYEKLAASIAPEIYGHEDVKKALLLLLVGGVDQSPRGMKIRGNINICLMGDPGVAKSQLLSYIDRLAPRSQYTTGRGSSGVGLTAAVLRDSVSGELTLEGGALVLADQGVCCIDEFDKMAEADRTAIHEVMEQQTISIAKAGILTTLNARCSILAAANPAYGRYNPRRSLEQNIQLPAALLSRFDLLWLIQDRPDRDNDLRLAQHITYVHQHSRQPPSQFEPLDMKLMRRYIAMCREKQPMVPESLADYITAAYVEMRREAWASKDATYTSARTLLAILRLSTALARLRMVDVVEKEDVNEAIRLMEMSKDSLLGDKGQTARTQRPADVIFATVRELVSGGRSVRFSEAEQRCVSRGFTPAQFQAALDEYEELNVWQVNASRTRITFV

Activity [6]: Dose-dependent effect
Activity [7]: Active
Activity [8]: Active
Activity [9]: 0.7
Activity [10]: 0.4
Activity [11]: 1.1
Activity [12]: Active
Activity [13]: Active
Activity [14]: Active
Activity [15]: inactive
Activity [16]: Active
SMILES: Cc1oc2c(c1C(=O)NCCCn1ccnc1)C(=O)c1ccccc1C2=O
Activity (NCI-H1975 [1]): 518 mm3
inhibition in vivo at 4 mg/kg (NCI-H1975 [2]): 59%
Activity (NCI-H1975 [3]): 16%
Activity (NCI-H1975 [4]): Active
Activity (NCI-H1975 [5]): Active
